In patent US9994581B2, “Bromodomain inhibitors” (AbbVie Inc., priority 2013, dated 2018):
Like-named read-outs stand apart in the source and are kept apart here.

Key:
BRD4 (BDI-BDII_K57-K550) = BRD4 (BDI-BDII_K57-K550) (Homo sapiens, UniProt O60885); test: TR-FRET bromodomain binding assay; details: His-tagged tandem bromodomain, Alexa647-labeled probe; Ki calculated from IC50s, probe Kd and probe concentration
[1] = test system: LPS induced IL-6 (Interleukin-6) production; test: LPS (lipopolysaccharide) induced IL-6 production mouse assay; details: oral administration one hour before LPS 2.5 mg/kg i.p., serum IL-6 2 hours after LPS, p < 0.05
[2] = test system: breast cancer cell line MX-1; test: MX-1 cell line proliferation assay (3-day, Cell Titer Glo); assay type: cell-based; details: 72 hours, read-out: Cellular proliferation: EC50
In short: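 MX-1 cells plated at 5000 cells/well and adhered overnight at 37°, then treated for 3 days with 10-point 3-fold dilutions (final top 3 or 1 μM). Viability by Cell Titer Glo luminescence normalized to DMSO-treated cells; EC50 from sigmoidal curve fit.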

| Compound | Ki (BRD4 (BDI-BDII_K57-K550)) | EC50 ([2]; Homo sapiens, MX1, MX-1 cells) | EC50 ([2]; MX-1 cells) | Inhibition of LPS induced IL-6 production, % inhibition ([1]; CD1 mouse strain) | Inhibition of LPS induced IL-6 production, % inhibition ([1]; SCID mouse strain) |
| --- | --- | --- | --- | --- | --- |
| Cn1cc2c(cc1=O)OCCCCc1cc(Cl)ccc1Oc1ccc(CS(C)(=O)=O)cc1-2 [Example A-36, 11-chloro-2-methyl-17-((methylsulfonyl)methyl)-6,7,8,9-tetrahydrodibenzo[4,5:7,8][1,6]dioxacyclododecino[3,2-c]pyridin-3(2H)-one] | 2.85 nM | 19.2 nM |  | 68% |  |
| CCS(=O)(=O)c1ccc2c(c1)-c1cn(C)c(=O)cc1OCCCCc1cc(Cl)ccc1O2 [Example A-13, 11-chloro-17-(ethylsulfonyl)-2-methyl-6,7,8,9-tetrahydrodibenzo[4,5:7,8][1,6]dioxacyclododecino[3,2-c]pyridin-3(2H)-one] | 0.99 nM | 13.6 nM |  | 82% |  |
| CCS(=O)(=O)Nc1cnc2c(c1)-c1cn(C)c(=O)cc1OCCCCc1cc(Cl)ccc1O2 [Example A-33, N-(11-chloro-2-methyl-3-oxo-2,3,6,7,8,9-hexahydrobenzo[11,12][1,6]dioxacyclododecino[2,3-b:4,5-c′]dipyridin-17-yl)ethanesulfonamide] | 1.45 nM | 5.68 nM |  | 74% |  |
| Cn1cc2c(cc1=O)OCCCc1cc(Cl)ccc1Oc1ccc(NS(C)(=O)=O)cc1-2 [Example A-12, N-(10-chloro-2-methyl-3-oxo-3,6,7,8-tetrahydro-2H-dibenzo[4,5:7,8][1,6]dioxacycloundecino[3,2-c]pyridin-16-yl)methanesulfonamide] | 2.16 nM | 19.1 nM |  | 47% |  |
| CCS(=O)(=O)Nc1ccc2c(c1)-c1cn(C)c(=O)cc1OCCCCc1cc(Cl)ccc1O2 [Example A-9, N-(11-chloro-2-methyl-3-oxo-2,3,6,7,8,9-hexahydrodibenzo[4,5:7,8][1,6]dioxacyclododecino[3,2-c]pyridin-17-yl)ethanesulfonamide] | 0.93 nM | 5.69 nM |  | 83% |  |
| CCS(=O)(=O)Nc1ccc2c(c1)-c1cn(C)c(=O)cc1OCCCc1cc(Cl)ccc1O2 [Example A-5, N-(10-chloro-2-methyl-3-oxo-3,6,7,8-tetrahydro-2H-dibenzo[4,5:7,8][1,6]dioxacycloundecino[3,2-c]pyridin-16-yl)ethanesulfonamide] | 1.3 nM | 12.8 nM |  |  | 73% |
| CCS(=O)(=O)c1ccc2c(c1)-c1cn(C)c(=O)cc1OCCCc1cc(Cl)ccc1O2 [Example A-3, 10-chloro-16-(ethylsulfonyl)-2-methyl-7,8-dihydro-2H-dibenzo[4,5:7,8][1,6]dioxacycloundecino[3,2-c]pyridin-3(6H)-one] | 7.54 nM | 31.1 nM |  |  | 78% |
| CCS(=O)(=O)c1ccc2c(c1)-c1cn(C)c(=O)cc1OCCCCc1cc(F)cc(F)c1O2 [Example A-20, 17-(ethylsulfonyl)-11,13-difluoro-2-methyl-6,7,8,9-tetrahydrodibenzo[4,5:7,8][1,6]dioxacyclododecino[3,2-c]pyridin-3(2H)-one] | 1.25 nM | 8.69 nM |  | 81% |  |
| CCS(=O)(=O)Nc1ccc2c(c1)-c1cn(C)c(=O)cc1OCCCc1cc(F)cc(F)c1O2 [Example A-6, N-(10,12-difluoro-2-methyl-3-oxo-3,6,7,8-tetrahydro-2H-dibenzo[4,5:7,8][1,6]dioxacycloundecino[3,2-c]pyridin-16-yl)ethanesulfonamide] | 1.51 nM | 9.6 nM |  | 86% |  |
| 17-(ethylsulfonyl)-11-fluoro-2-methyl-6,7,8,9-tetrahydrodibenzo[4,5:7,8][1,6]dioxacyclododecino[3,2-c]pyridin-3(2H)-one [Example A-22] | 1.51 nM |  | 9 nM | 83% |  |
| CCS(=O)(=O)Nc1ccc2c(c1)-c1cn(C)c(=O)cc1OCCCCc1cc(F)cc(F)c1O2 [Example A-14, N-(11,13-difluoro-2-methyl-3-oxo-2,3,6,7,8,9-hexahydrodibenzo[4,5:7,8][1,6]dioxacyclododecino[3,2-c]pyridin-17-yl)ethanesulfonamide] |  |  |  | 77% |  |
| Cn1cc2c(cc1=O)OCCCCc1cc(Cl)ccc1Oc1ncc(C(=O)O)cc1-2 [Example A-38, 11-chloro-2-methyl-3-oxo-2,3,6,7,8,9-hexahydrobenzo[11,12][1,6]dioxacyclododecino[2,3-b:4,5-c′]dipyridine-17-carboxylic acid] | 14.7 nM | > 1000 nM |  |  |  |
| Cn1cc2c(cc1=O)OCCCCc1ccc(Cl)cc1Oc1ccc(NS(C)(=O)=O)cc1-2 [Example A-44, N-(12-chloro-2-methyl-3-oxo-2,3,6,7,8,9-hexahydrodibenzo[4,5:7,8][1,6]dioxacyclododecino[3,2-c]pyridin-17-yl)methanesulfonamide] | 1.22 nM | 4.05 nM |  |  |  |
| CCS(=O)(=O)c1ccc2c(c1)-c1cn(C)c(=O)cc1OCCCCc1ccc(Cl)cc1O2 [Example A-25, 12-chloro-17-(ethylsulfonyl)-2-methyl-6,7,8,9-tetrahydrodibenzo[4,5:7,8][1,6]dioxacyclododecino[3,2-c]pyridin-3(2H)-one] | 1.29 nM | 10.8 nM |  |  |  |

The next lines start with results.

| Ki (BRD4 (BDI-BDII_K57-K550)) | EC50 ([2]; Homo sapiens, MX1, MX-1 cells) | EC50 ([2]; MX-1 cells) | Compound | Inhibition of LPS induced IL-6 production, % inhibition ([1]; CD1 mouse strain) | Inhibition of LPS induced IL-6 production, % inhibition ([1]; SCID mouse strain) |
| --- | --- | --- | --- | --- | --- |
| 1.19 nM | 2.79 nM |  | CCS(=O)(=O)Nc1ccc2c(c1)-c1cn(C)c(=O)cc1OCCOCc1cc(Cl)ccc1O2 [Example B-5, N-(11-chloro-2-methyl-3-oxo-2,3,6,7-tetrahydro-9H-dibenzo[6,7:9,10][1,4,8]trioxacyclododecino[11,12-c]pyridin-17-yl)ethanesulfonamide] | 61% |  |
| 15.1 nM | 8.77 nM |  | CCN1CCOc2cc(=O)n(C)cc2-c2cc(NS(=O)(=O)CC)ccc2Oc2ccc(Cl)cc2C1 [Example B-1, N-(11-chloro-8-ethyl-2-methyl-3-oxo-2,3,6,7,8,9-hexahydrodibenzo[f,i]pyrido[3,4-k][1,8,4]dioxazacyclododecin-17-yl)ethanesulfonamide] | 43% |  |
| 10.5 nM | 257 nM |  | CCS(=O)(=O)Nc1ccc2c(c1)-c1cn(C)c(=O)cc1OCCNC(=O)c1cc(Cl)ccc1O2 [Example B-4, N-(11-chloro-2-methyl-3,9-dioxo-2,3,6,7,8,9-hexahydrodibenzo[f,i]pyrido[3,4-k][1,8,4]dioxazacyclododecin-17-yl)ethanesulfonamide] |  |  |
| 1.57 nM | 17.1 nM |  | CCS(=O)(=O)Nc1ccc2c(c1)-c1cn(C)c(=O)cc1OCCN(S(C)(=O)=O)Cc1cc(Cl)ccc1O2 [Example B-6, N-[11-chloro-2-methyl-8-(methylsulfonyl)-3-oxo-2,3,6,7,8,9-hexahydrodibenzo[f,i]pyrido[3,4-k][1,8,4]dioxazacyclododecin-17-yl]ethanesulfonamide] |  |  |
| 5.1 nM | 8.01 nM |  | CCS(=O)(=O)Nc1ccc2c(c1)-c1cn(C)c(=O)cc1OCCN(CC1CC1)Cc1cc(Cl)ccc1O2 [Example B-12, N-[11-chloro-8-(cyclopropylmethyl)-2-methyl-3-oxo-2,3,6,7,8,9-hexahydrodibenzo[f,i]pyrido[3,4-k][1,8,4]dioxazacyclododecin-17-yl]ethanesulfonamide] |  |  |
| 1.24 nM | 29.7 nM |  | CCS(=O)(=O)Nc1ccc2c(c1)-c1cn(C)c(=O)cc1OCCN(C(=O)OC(C)(C)C)Cc1cc(Cl)ccc1O2 [Example B-10, tert-butyl 11-chloro-17-[(ethylsulfonyl)amino]-2-methyl-3-oxo-2,3,6,7-tetrahydrodibenzo[f,i]pyrido[3,4-k][1,8,4]dioxazacyclododecine-8(9H)-carboxylate] |  |  |
